How the values were obtained:
E. coli K12 PBP1a/b = experiment: Bocillin FL competition binding assay, PBP1a/1b combined; design: species or system Escherichia coli K12; details: 15 min pre-incubation, PBP 1a/1b combined
Protocol: (§1) To determine the ability of test compounds to bind Penicillin Binding Proteins (PBPs), a competition binding assay using Bocillin FL (fluorescent derivative of penicillin V) was adapted from the classical method used to assess PBP potency of beta-lactams.
(§2) Penicillin binding proteins were isolated from Escherichia coli K12 by growth of Escherichia coli K12 from a single colony in 4 L of Luria-Bertani (LB) broth at 35° C. and 250 rpm to an OD600 nm of 0.5. The cells were harvested by centrifugation at 7,000×g for 10 min. at 4° C. Cells were resuspended and washed in 50 mM potassium phosphate pH 7.5. The cells were re-suspended in sonication buffer [50 mM Tris-HCl pH 7.5, 1 mM MgCl2, 1 mM beta-mercaptoethanol, and 5 μg/mL DNAse I] and sonicated by 4 passes of 30 seconds at 45 W on ice. The sample was clarified by centrifugation at 3,000×g to remove cell debris and unbroken cells and supernatant containing the membrane proteins was retained. The membrane proteins including the PBPs were further purified from soluble constituents by an ultracentrifugation step at 100,000×g for 30 min. at 4° C. The membrane proteins are washed twice with 10 mM sodium phosphate pH 7, resuspended in a volume of 5 mL, quantitated by BCA assay, adjusted to […] and frozen at −80° C. until use.
(§3) The adapted Bocillin FL competition binding method described herein incorporates a 15 min. pre-incubation of test compound with isolated PBPs to attempt to balance the difference in mechanism of inhibition between beta-lactams (largely irreversible covalent bond to active site Serine) and the boron-containing PBP inhibitor test compounds (reversible covalent bond to active site Serine). Briefly, 50 μL reactions consisted of 100 μg's of total membrane protein extracts containing PBPs incubated with a dilution series of test compound ranging from 0.005 μg/mL to 2,480 μg/mL in 10 mM sodium phosphate pH7 containing 350 mM NaCl. Thirty minute reactions at 35° C. were initiated by addition of […] Bocillin FL, quenched by addition of SDS-PAGE loading buffer containing sodium dodecyl sulfate (SDS) and heated for 15 minutes at 95° C. to denature proteins in preparation for SDS-polyacrylamide gel electrophoresis. The Bocillin FL labeled PBPs are then separated by SDS-PAGE in Novex NuPage 10% Bis-Tris pre-cast gels (Invitrogen). The SDS-PAGE gel, post-electrophoresis, is then washed in water to remove excess SDS for 10 minutes at room temperature and placed on the scanning bed of a GE Healthcare/Amersham Biosciences Storm 860 fluorescence scanner. The excitation wavelength is in the blue spectrum at 450 nm and the emission at 520 nm is captured by the instrument. Effective PBP inhibitors are detected by a reduction in Bocillin FL labeling of the particular PBP over the dose range of test compound in a dose-responsive manner. High molecular weight PBP 1a/1b are not resolved by these gels, thus we report HMW PBP binding results in μg/mL for PBPs 1a/1b combined as well as for PBP2 and PBP3.
(§4) Representative results are shown in Table 2, where A represents a potency of >1000 μg/mL, B represents a potency between 64 and 1000 μg/mL inclusive, and C represents a potency of <64 μg/mL. NT=Not Tested.

E. coli PBP2 = biological target: T1, E. coli PBP2 (Escherichia coli, UniProt P0AD65); experiment: Bocillin FL competition binding assay, PBP2; design: species or system Escherichia coli K12; details: 15 min pre-incubation
T1 construct: 100 μg's of total membrane protein extracts containing PBPs; endogenous in cells; host or cells: Escherichia coli K12, membrane protein fraction
Protocol: as §1, §2, §3, §4

E. coli PBP3 = biological target: T2, E. coli PBP3 (Escherichia coli, UniProt P0AD68); experiment: Bocillin FL competition binding assay, PBP3; design: species or system Escherichia coli K12; details: 15 min pre-incubation
T2 construct: 100 μg's of total membrane protein extracts containing PBPs; endogenous in cells; host or cells: Escherichia coli K12, membrane protein fraction
Protocol: as §1, §2, §3, §4

S. aureus ATCC 29213 = experiment: Broth microdilution MIC assay, S. aureus; assay type: cell-based; details: Staphylococcus aureus, ATCC29213; broth microdilution, 16-20 hours at 37° C.; read-out: S. aureus 29213 MIC
Method in brief: (§5)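 Growth inhibition is measured by CLSI broth microdilution. Log-phase bacteria (5×10^5 CFU/mL starting density) are incubated with 2-fold compound dilutions in cation-supplemented MH broth for 16-20 hours at 37° C, and the MIC is scored visually.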

[1] = system: hyper-permeable E. coli 901C; experiment: Broth microdilution MIC assay, hyper-permeable E. coli; assay type: cell-based; details: Escherichia coli, read-out: E. coli 901C MIC
Method in brief: as §5

T2 sequence (P0AD68 1-577): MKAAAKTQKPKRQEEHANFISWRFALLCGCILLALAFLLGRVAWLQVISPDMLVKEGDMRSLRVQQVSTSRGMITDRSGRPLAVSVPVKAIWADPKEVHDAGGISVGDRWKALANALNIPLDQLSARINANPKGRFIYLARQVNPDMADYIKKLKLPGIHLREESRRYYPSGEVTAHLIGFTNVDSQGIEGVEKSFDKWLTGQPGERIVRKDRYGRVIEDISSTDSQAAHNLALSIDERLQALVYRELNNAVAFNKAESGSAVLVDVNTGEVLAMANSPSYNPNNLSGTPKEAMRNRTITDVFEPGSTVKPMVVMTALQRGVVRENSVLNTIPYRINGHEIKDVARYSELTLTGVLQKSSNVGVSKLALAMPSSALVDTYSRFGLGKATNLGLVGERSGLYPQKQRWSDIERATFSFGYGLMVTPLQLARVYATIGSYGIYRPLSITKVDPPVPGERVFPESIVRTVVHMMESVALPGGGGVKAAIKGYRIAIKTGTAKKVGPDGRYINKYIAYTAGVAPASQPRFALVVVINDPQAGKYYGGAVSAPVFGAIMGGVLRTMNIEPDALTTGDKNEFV
T1 sequence (P0AD65 whole entry): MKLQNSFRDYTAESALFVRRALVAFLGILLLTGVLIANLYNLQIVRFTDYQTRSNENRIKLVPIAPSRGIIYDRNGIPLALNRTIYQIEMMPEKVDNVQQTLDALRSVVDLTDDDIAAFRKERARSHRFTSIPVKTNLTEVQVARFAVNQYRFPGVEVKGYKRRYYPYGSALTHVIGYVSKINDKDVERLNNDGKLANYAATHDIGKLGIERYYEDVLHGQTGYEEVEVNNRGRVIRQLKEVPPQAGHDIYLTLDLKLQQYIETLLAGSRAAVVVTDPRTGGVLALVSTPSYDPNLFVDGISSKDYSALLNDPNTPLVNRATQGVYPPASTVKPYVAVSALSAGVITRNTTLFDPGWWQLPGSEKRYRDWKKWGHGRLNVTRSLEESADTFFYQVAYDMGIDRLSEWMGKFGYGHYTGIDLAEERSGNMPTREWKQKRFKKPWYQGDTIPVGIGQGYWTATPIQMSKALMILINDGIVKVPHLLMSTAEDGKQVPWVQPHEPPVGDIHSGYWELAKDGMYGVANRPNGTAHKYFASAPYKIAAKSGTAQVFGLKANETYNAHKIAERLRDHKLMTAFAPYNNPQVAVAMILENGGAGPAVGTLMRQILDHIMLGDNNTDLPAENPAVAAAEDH

Row | Structure (SMILES) | E. coli K12 PBP1a/b Potency (E. coli K12 PBP1a/b) | E. coli PBP2 Potency (E. coli PBP2) | E. coli PBP3 Potency (E. coli PBP3) | MIC (S. aureus ATCC 29213) [µg/mL] | MIC [1] [µg/mL]
1 | CC(O/N=C(\C(=O)N[C@H]1Cc2cccc(C(=O)O)c2OB1O)c1csc(N)n1)C(=O)O (stereo partly drawn) [Example 71, (3R)-3-((Z)-2-(2-aminothiazol-4-yl)-2-((1-carboxyethoxy)imino)acetamido)-2-hydroxy-3,4-dihydro-2H-benzo[e][1,2]oxaborinine-8-carboxylic Acid] | C (C represents a potency of <64 μg/mL) | C (C represents a potency of <64 μg/mL) | C (C represents a potency of <64 μg/mL) | > 128 | < 64
2 | CC(C)(O/N=C(\C(=O)N[C@H]1Cc2cccc(C(=O)O)c2OB1O)c1csc(N)n1)C(=O)NCC(=O)O [Example 75, (R,Z)-3-(2-(2-aminothiazol-4-yl)-2-(((1-((carboxymethyl)amino)-2-methyl-1-oxopropan-2-yl)oxy)imino)acetamido)-2-hydroxy-3,4-dihydro-2H-benzo[e][1,2]oxaborinine-8-carboxylic Acid] | C (C represents a potency of <64 μg/mL) | C (C represents a potency of <64 μg/mL) | C (C represents a potency of <64 μg/mL) | > 128 | < 64
3 | NCCCC[C@@H](NC(=O)CO/N=C(\C(=O)N[C@H]1Cc2cccc(C(=O)O)c2OB1O)c1csc(N)n1)C(=O)O [Example 66, (R)-3-((Z)-2-((2-(((R)-5-amino-1-carboxypentyl)amino)-2-oxoethoxy)imino)-2-(2-aminothiazol-4-yl)acetamido)-2-hydroxy-3,4-dihydro-2H-benzo[e][1,2]oxaborinine-8-carboxylic Acid] | C (C represents a potency of <64 μg/mL) | B (B represents a potency between 64 and 1000 μg/mL inclusive) | C (C represents a potency of <64 μg/mL) | > 128 | < 64
4 | NCc1ccc(/C(=N/O)C(=O)N[C@H]2Cc3cccc(C(=O)O)c3OB2O)cc1 [Example 12, (R,Z)-3-(2-(4-(aminomethyl)phenyl)-2-(hydroxyimino)acetamido)-2-hydroxy-3,4-dihydro-2H-benzo[e][1,2]oxaborinine-8-carboxylic Acid] | B (B represents a potency between 64 and 1000 μg/mL inclusive) | B (B represents a potency between 64 and 1000 μg/mL inclusive) | B (B represents a potency between 64 and 1000 μg/mL inclusive) | < 64 | > 128
5 | Nc1nc(/C(=C/C(=O)O)C(=O)N[C@H]2Cc3cccc(C(=O)O)c3OB2O)cs1 [Example 89, (R,Z)-3-(2-(2-aminothiazol-4-yl)-3-carboxyacrylamido)-2-hydroxy-3,4-dihydro-2H-benzo[e][1,2]oxaborinine-8-carboxylic Acid] | A (A represents a potency of >1000 μg/mL) | C (C represents a potency of <64 μg/mL) | C (C represents a potency of <64 μg/mL) | > 128 | 64 to 128
6 | Nc1nc(/C(=N\O)C(=O)N[C@H]2Cc3cccc(C(=O)O)c3OB2O)cs1 [Example 7, (R,E)-3-(2-(2-aminothiazol-4-yl)-2-(hydroxyimino)acetamido)-2-hydroxy-3,4-dihydro-2H-benzo[e][1,2]oxaborinine-8-carboxylic Acid] | A (A represents a potency of >1000 μg/mL) | B (B represents a potency between 64 and 1000 μg/mL inclusive) | A (A represents a potency of >1000 μg/mL) | 64 to 128 | < 64
7 | Nc1nc(/C(=C\C(=O)O)C(=O)N[C@H]2Cc3cccc(C(=O)O)c3OB2O)cs1 [Example 88, (R,E)-3-(2-(2-aminothiazol-4-yl)-3-carboxyacrylamido)-2-hydroxy-3,4-dihydro-2H-benzo[e][1,2]oxaborinine-8-carboxylic Acid] | A (A represents a potency of >1000 μg/mL) | B (B represents a potency between 64 and 1000 μg/mL inclusive) | B (B represents a potency between 64 and 1000 μg/mL inclusive) | > 128 | 64 to 128
8 | CN(C)C(=O)CO/N=C(\C(=O)N[C@H]1Cc2cccc(C(=O)O)c2OB1O)c1csc(N)n1 [Example 60, (R,Z)-3-(2-(2-aminothiazol-4-yl)-2-((2-(dimethylamino)-2-oxoethoxy)imino)acetamido)-2-hydroxy-3,4-dihydro-2H-benzo[e][1,2]oxaborinine-8-carboxylic Acid] | B (B represents a potency between 64 and 1000 μg/mL inclusive) | C (C represents a potency of <64 μg/mL) | C (C represents a potency of <64 μg/mL) | > 128 | < 64
9 | CNC(=O)C(C)(C)O/N=C(\C(=O)N[C@H]1Cc2cccc(C(=O)O)c2OB1O)c1csc(N)n1 [Example 69, (R,Z)-3-(2-(2-aminothiazol-4-yl)-2-(((2-methyl-1-(methylamino)-1-oxopropan-2-yl)oxy)imino)acetamido)-2-hydroxy-3,4-dihydro-2H-benzo[e][1,2]oxaborinine-8-carboxylic Acid] | C (C represents a potency of <64 μg/mL) | C (C represents a potency of <64 μg/mL) | C (C represents a potency of <64 μg/mL) | > 128 | < 64
10 | Nc1nc(/C(=N/O)C(=O)N[C@H]2Cc3cc(CO)cc(C(=O)O)c3OB2O)cs1 [Example 35, (R,Z)-3-(2-(2-aminothiazol-4-yl)-2-(hydroxyimino)acetamido)-2-hydroxy-6-(hydroxymethyl)-3,4-dihydro-2H-benzo[e][1,2]oxaborinine-8-carboxylic Acid] | C (C represents a potency of <64 μg/mL) | A (A represents a potency of >1000 μg/mL) | B (B represents a potency between 64 and 1000 μg/mL inclusive) | 64 to 128 | > 128
11 | N#Cc1ccc(NC(=O)CO/N=C(\C(=O)N[C@H]2Cc3cccc(C(=O)O)c3OB2O)c2csc(N)n2)cc1 [Example 56, (R,Z)-3-(2-(2-aminothiazol-4-yl)-2-((2-((4-cyanophenyl)amino)-2-oxoethoxy)imino)acetamido)-2-hydroxy-3,4-dihydro-2H-benzo[e][1,2]oxaborinine-8-carboxylic Acid] | B (B represents a potency between 64 and 1000 μg/mL inclusive) | C (C represents a potency of <64 μg/mL) | C (C represents a potency of <64 μg/mL) | 64 to 128 | < 64
12 | CNC(=O)CO/N=C(\C(=O)N[C@H]1Cc2cccc(C(=O)O)c2OB1O)c1csc(N)n1 [Example 57, (R,Z)-3-(2-(2-aminothiazol-4-yl)-2-((2-(methylamino)-2-oxoethoxy)imino)acetamido)-2-hydroxy-3,4-dihydro-2H-benzo[e][1,2]oxaborinine-8-carboxylic Acid] | C (C represents a potency of <64 μg/mL) | B (B represents a potency between 64 and 1000 μg/mL inclusive) | C (C represents a potency of <64 μg/mL) | > 128 | < 64
